Here are results for 2 molecules from US4820712A, “Sparsomycin (SC-RS) compounds having antitumor activity, a process for their preparation and pharmaceutical compositions containing sparsomycin (SC-RS) compounds” (priority 1986, dated 1989).

Data set [1] addresses ribosomes from S. cerevisiae Y166 (peptidyl transferase activity). The experiment in a line: polyphenylalanine synthesis assay, S. cerevisiae ribosomes. The format is biochemical. The settings on record: concentration giving 50% inhibition relative to control; 30° C., 30 min; read-out: ED50 polyPhe synthesis S. cerevisiae. The procedure: (§1) The peptidyl transferase activity was measured by the polyphenylalanine synthesis assay (Nirenberg and Matthei, Proc. Natl. Acad. Sci. USA 47 (1961) 1588), the fragment reaction (Monro, Methods Enzymol. 20 (1971) 472) and the puromycin reaction. In all the in vitro tests, i.e. polyPhe synthesis, fragment reaction and puromycin reaction, ribosomes from E. coli MRE600 and S. cerevisiae Y166 were used. The reaction mixture for polyphenylalanine synthesis was slightly different for E. coli and S. cerevisiae.
S. cerevisiae: The test was carried out as indicated above for E. coli. The phosphoenol pyruvate and pyruvate kinase were, however, replaced by creatine phosphate (20 mM) and creatine phosphokinase (50 μg/ml). The incubation was performed at 30° C. for 30 min and the samples were processed as described above. Under these conditions the control samples polymerized 5-14 and 3-8 molecules of phenylalanine per ribosome derived from E. coli and S. cerevisiae, respectively. Ribosomes and supernatant factors from E. coli and S. cerevisiae were prepared according to standard procedures, described by Staehelin and Maglott, Methods Enzymol. 20 (1971) 449, and by Sanchez-Madrid et al, Eur. J. Biochem. 98 (1979) 409.
(§2) The concentration of sparsomycin or an analog giving 50% inhibition of the protein synthesis relative to the control is given in ED50.

Another data set deals with L1210 leukemia. The experiment in a line: in vivo antitumor assay, L1210 leukemia. Also on record: species or system CDF1 mice. The procedure:
(§3) The antitumor activity of the present compounds has also been investigated by in vivo assays. In the assays, mice were treated for nine days in succession, starting at 24 hours after the time of tumor implant.
(§4) The results are shown in tables 4, 5 and 6 and represent the number of tumor-bearing mice surviving after administration of optimal doses of the test compound, expressed as a treatment/control (T/C×100%) ratio. In the tables, information is provided with respect to the sex, dose, weight loss of treated animals compared to control animals, and the number of survivors in groups of 6 mice.

In data set [2] the test system is RC (renal cell) carcinoma. In words: in vivo antitumor assay, RC (renal cell) carcinoma. Further details: species or system CDF1 mice. The procedure:
as §3, §4

The test system of data set [3] is ribosomes from E. coli MRE600 (peptidyl transferase activity). The experiment in a line: puromycin reaction, E. coli ribosomes. The settings on record: 50% inhibition relative to control; read-out: ED50 Puromycin reaction E. coli. Format: biochemical. The procedure: as §1
The puromycin reaction was carried out in 25 μl of 30 mM KCl, 50 mM NH4 Cl, 30 mM Tris-HCl pH 7.8, 20 mM MgCl2, 10 pmol of ribosomes, 100 μg/ml of poly(U) and 15 pmol of N-acetyl-[^3 H]Phe-tRNA. The reaction mixture was incubated for 30 min at 37° C. and then 1 μl of 20 mM puromycin was added and incubation was followed for 5 more min. To the samples 250 μl of 0.1M sodium carbonate and 0.7 ml of ethyl acetate were added, shaken for 1 min, centrifuged to separate the phases and 0.5 ml of the upper organic phase taken for estimating the radioactivity.
as §2

Data set [4] has the same test system. The experiment in a line: polyphenylalanine synthesis assay, E. coli ribosomes. The format is biochemical. The settings on record: concentration giving 50% inhibition relative to control; 37° C., 30 min; read-out: ED50 polyPhe synthesis E. coli. The procedure: as §1
E. coli: The reaction mixture (50 μl) contained 50 mM Tris-HCl pH 7.6, 15 mM MgCl2, 90 mM KCl, 15 mM β-mercapto ethanol, 1 mM GTP, 10 mM ATP, 0.2 mg/ml of polyuridylic acid, 1.5 mg/ml tRNA, 0.3 μM of ribosomes, 2.5 mg/ml of phosphoenol pyruvate, 20 μg/ml of pyruvate kinase, the required concentration of sparsomycin or its analogue and 5 μl of supernatant fraction S-100. Subsequently, [^3 H]phenylalanine, 30 μM (about 60 cpm/pmol) was added to start the reaction. Incubation was at 37° C. for 30 min. The reaction was stopped by the addition of 1 ml of 10% TCA and the samples were filtered through glass fiber filters. The filters were washed with 10 ml of cold 10% TCA, dried and counted for radioactivity.
as §2

Data set [5] deals with ribosomes from S. cerevisiae Y166 (peptidyl transferase activity). In words: fragment reaction, S. cerevisiae ribosomes. The settings on record: 50% inhibition relative to control; 0° C., 30 min, 33% methanol; read-out: ED50 Fragment reaction S. cerevisiae. The format is biochemical. The procedure: as §1
(§5) The fragment reaction was carried out in 150 μl of 33 mM Tris-HCl pH 7.4, 270 mM KCl, 13 mM magnesium acetate containing 1 mg/ml of ribosomes, 2 mM puromycin, 1 pmol of N-acetyl-[^3 H]Leu-ACCAC(U), the required concentration of sparsomycin or its analogue and 33% methanol. The reaction was initiated by the addition of the alcohol and allowed to proceed at 0° C. for 30 min, and was then stopped by the addition of 100 μl of 0.3M sodium acetate pH 5.5 saturated with MgSO4. The samples were extracted with 1.5 ml of ethyl acetate and 1 ml of the organic phase was checked for radioactivity. The 3' terminal pentanucleotide N-acetyl-[^3 H]Leu-ACCAC(U) was prepared from N-acetyl-[^3 H]Leu-tRNA by ribonuclease T1 as described by Monro.
as §2

The next data set relates to Leukemia L 1210 cells. The experiment in a line: in vitro clonogenic L1210 assay (inhibition of colony formation in soft agar). The format is cell-based. The settings on record: Mus musculus, L1210, 72 h, read-out: ID50 (dose giving 50% inhibition of L1210 colony formation).
Data set [6] has as its system ribosomes from E. coli MRE600 (peptidyl transferase activity). In words: fragment reaction, E. coli ribosomes. The settings on record: 50% inhibition relative to control; 0° C., 30 min, 33% methanol; read-out: ED50 Fragment reaction E. coli. The format is biochemical. The procedure:
as §1, §5, §2

Setting [7] is: female mice, ip daily x9, optimal dose mg/kg: sparsomycin 0.25, n-octyl 12.0, benzyl 10.0, 2a 2.5, 2e 13.3.
[8] abbreviates: female mice, ip daily x9, dose mg/kg: sparsomycin 0.25, n-octyl 12.0, benzyl 10.0, 2a 2.5, 2e 13.3.
Where [9] appears, read: male mice, ip daily x9, optimal dose mg/kg: sparsomycin 0.125, n-octyl 20.0, benzyl 4.0, 2a 1.7.
The mark [10] stands for this setting: male mice, ip daily x9, dose mg/kg: sparsomycin 0.125, n-octyl 20.0, benzyl 4.0, 2a 1.7.
[11] abbreviates: female mice, ip daily x9, dose mg/kg: 2a 2.3.
Setting [12] is: male mice, ip daily x9, optimal dose mg/kg: sparsomycin 0.125, n-octyl 20.0, benzyl 2.7, 2a 1.1.
[13] abbreviates: male mice, ip daily x9, dose mg/kg: sparsomycin 0.125, n-octyl 20.0, benzyl 2.7, 2a 1.1.

Where two headings read alike, the source gives them in different places.

Protocol for Leukemia L 1210 cells: The in vitro clonogenic assay was effected in Leukemia L 1210 cells in soft agar medium (0.3%). […] In the analysis, the inhibition of the L 1210 colony formation by sparsomycin and derivatives thereof is determined for various concentrations, and the dose giving 50% inhibition of the colony formation, as compared with non-treated control cells is calculated (ID50).
From a suspension culture one hundred L 1210 cells are plated out in 35 mm culture dishes (Falcon) containing 1 ml soft agar culture medium and the compound to be investigated in suitable concentrations. The soft agar culture medium consists of Dulbecco's medium supplemented with 20% horse serum, 60 μmole 2-mercaptoethanol, 20 mg/ml L-asparagine, 75 mg/ml DEAE dextran (molecular weight 2×10^6) and 0.3% bacto agar (Difco). The culture dishes were incubated at 37° C. in an atmosphere of 10% CO2 in humidified air for 3 days. After this period of continuous exposure to the medicament the colonies were counted and dose-effect curves made. From these curves, the medicament dose is calculated which causes 50% inhibition of the colony formation as compared with non-treated control cells.

For the molecule `CSC[S@+]([O-])C[C@H](C)NC(=O)/C=C/c1c(C)[nH]c(=O)[nH]c1=O` [2a, (Sc Rs)-1-(methylthiomethyl)sulfinyl-2-[β-(6-methyl-5-uracilyl)acrylamido]-propane], the IC50 was 7.5 µM in data set [1]; 0.9 µM in data set [3]; 15.1 µM in data set [4]; 5.7 µM in data set [5]; 0.1 µM with Leukemia L 1210 cells; 4.7 µM in data set [6]. Also, the “T/C (survival, treatment/control x 100%)” value in the data set on L1210 leukemia (setting [7]) is reported as 184%; in the data set on L1210 leukemia (setting [9]) it was 248%; in data set [2] (female mice, ip daily x9, optimal dose mg/kg: 2a 2.3), 300%; in data set [2] (setting [12]), 304%. The “cures (survivors in groups of 6 mice)” value is listed as 0/6 in the data set on L1210 leukemia (setting [8]), 2/6 in the data set on L1210 leukemia (setting [10]), 0/6 in data set [2] (setting [11]) and 0/6 in data set [2] (setting [13]). Further, the “weight loss (T - C)” value in the data set on L1210 leukemia (setting [8]) is reported as -1.4 g; with L1210 leukemia (male mice, ip daily x9 from 24 h after implant, dose mg/kg: sparsomycin 0.125, n-octyl 20.0, benzyl 4.0, 2a 1.7), -2.0 g; in data set [2] (setting [11]) it was -1.5 g; in data set [2] (setting [13]), -0.6 g.

Take `CSC[S@+]([O-])C[C@H](CO)NC(=O)/C=C/c1c(C)[nH]c(=O)[nH]c1=O` [Sparsomycin]: the IC50 in data set [1] worked out at 5.2 µM; in data set [3], 0.1 µM; in data set [4], 8.5 µM; in data set [5] it was 2.8 µM; in the data set with Leukemia L 1210 cells (soft agar 0.3%, 3 days continuous exposure, vs non-treated control cells), 0.4 µM; in data set [6], 3.2 µM. For the same molecule, the “T/C (survival, treatment/control x 100%)” value in the data set on L1210 leukemia (setting [7]) amounted to 121%; with L1210 leukemia (setting [9]) it was 105%; in data set [2] (setting [12]) it was 100%. For the same molecule, the “cures (survivors in groups of 6 mice)” value (in the data set on L1210 leukemia (setting [8]); in the data set on L1210 leukemia (setting [10]); in data set [2] (setting [13])) was 0/6 in each case. The “weight loss (T - C)” value is -1.1 g with L1210 leukemia (mouse, in vivo, ip) and -1.7 g in data set [2] (mouse, in vivo, ip).
